Test results as given in the supplement of paper PMC10307832.

How the values were obtained:
Experiment in all cases: relative viability (nuclei count vs DMSO), 5 days (fraction); higher = more cells survive
IPA-3 + Palbociclib = compound: C1=CC=C2C(=C1)C=CC(=C2SSC3=C(C=CC4=CC=CC=C43)O)O [IPA-3] + CC(=O)c1c(C)c2cnc(Nc3ccc(N4CCNCC4)cn3)nc2n(C2CCCC2)c1=O [Palbociclib] (partner 0.5 µM)
Outline: (§1)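 Relative viability is defined as nuclei in treated wells over nuclei in vehicle wells. Duplicate plates were run and medians reported. Lung cancer cell lines in 1536-well plates were dosed by pin tool one day after seeding, with one drug or with a fixed anchor-drug dose plus five library-drug doses (not always all listed) in √10 steps, and nuclei were counted after 5 days.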

Doramapimod + Lapatinib = compound: Cc1ccc(-n2nc(C(C)(C)C)cc2NC(=O)Nc2ccc(OCCN3CCOCC3)c3ccccc23)cc1 [Doramapimod] + CS(=O)(=O)CCNCc1ccc(-c2ccc3ncnc(Nc4ccc(OCc5cccc(F)c5)c(Cl)c4)c3c2)o1 [Lapatinib] (partner 2 µM)
Outline: as §1

Doramapimod + Bortezomib = compound: Cc1ccc(-n2nc(C(C)(C)C)cc2NC(=O)Nc2ccc(OCCN3CCOCC3)c3ccccc23)cc1 [Doramapimod] + CC(C)C[C@H](NC(=O)[C@H](Cc1ccccc1)NC(=O)c1cnccn1)B(O)O [Bortezomib] (partner 0.002 µM)
Outline: as §1

Doramapimod + Foretinib = compound: Cc1ccc(-n2nc(C(C)(C)C)cc2NC(=O)Nc2ccc(OCCN3CCOCC3)c3ccccc23)cc1 [Doramapimod] + COc1cc2c(Oc3ccc(NC(=O)C4(C(=O)Nc5ccc(F)cc5)CC4)cc3F)ccnc2cc1OCCCN1CCOCC1 [Foretinib] (partner 0.25 µM)
Outline: as §1

Cell Line	relative viability (IPA-3 + Palbociclib; first compound 0.2 µM)	relative viability (IPA-3 + Palbociclib; first compound 0.6325 µM)	relative viability (IPA-3 + Palbociclib; first compound 2 µM)	relative viability (IPA-3 + Palbociclib; first compound 6.325 µM)	relative viability (IPA-3 + Palbociclib; first compound 20 µM)	relative viability (Doramapimod + Lapatinib; first compound 0.02 µM)	relative viability (Doramapimod + Lapatinib; first compound 0.06325 µM)	relative viability (Doramapimod + Lapatinib; first compound 0.2 µM)	relative viability (Doramapimod + Lapatinib; first compound 0.6325 µM)	relative viability (Doramapimod + Lapatinib; first compound 2 µM)	relative viability (Doramapimod + Bortezomib; first compound 0.02 µM)	relative viability (Doramapimod + Bortezomib; first compound 0.06325 µM)	relative viability (Doramapimod + Bortezomib; first compound 0.2 µM)	relative viability (Doramapimod + Bortezomib; first compound 0.6325 µM)	relative viability (Doramapimod + Bortezomib; first compound 2 µM)	relative viability (Doramapimod + Foretinib; first compound 0.02 µM)	relative viability (Doramapimod + Foretinib; first compound 0.06325 µM)	relative viability (Doramapimod + Foretinib; first compound 0.2 µM)	relative viability (Doramapimod + Foretinib; first compound 0.6325 µM)	relative viability (Doramapimod + Foretinib; first compound 2 µM)
NCI-H1975	0.843	0.555	0.642	0.54	0.569	0.937	0.947	0.898	1.23	0.901	0.321	0.324	0.266	0.363	0.327	0.961	0.965	0.952	0.988	0.924
NCI-H1993	0.702	0.732	0.656	0.516	0.545	0.792	0.728	0.774	1.03	0.877	1.3	0.993	1.03	1.53	0.97	0.844	0.759	0.808	0.778	0.68
NCI-H2009	0.203	0.202	0.2	0.231	0.151	0.95	0.952	1.13	0.234	0.888	1.08	1.06	1.18	0.246	0.962	1.21	1.25	1.21	1.36	1.2
NCI-H2023	0.441	0.347	0.414	0.442	0.41	0.79	0.636	0.78	0.105	0.807	1	0.945	0.978	0.44	0.97	0.833	0.732	0.691	0.823	0.605
NCI-H2085	0.474	0.457	0.471	0.436	0.54	0.79	0.764	0.749	0.836	0.707	1.03	1	0.952	1.06	0.945	1.03	0.85	0.707	1.21	1.03
NCI-H2087	0.263	0.207	0.22	0.219	0.283	1.06	1.11	1.02	0.869	0.961	0.931	0.866	0.79	0.771	0.768	0.996	1.14	0.993	1.18	1.24
NCI-H2126	0.33	0.369	0.335	0.343	0.375	0.815	0.811	0.781	0.735	0.662	1.2	1.14	1.11	1.16	1.07	1.21	0.988	1.14	1.34	1.2
NCI-H2228	0.825	0.71	0.474	1	0.752	1.12	0.926	1.12	0.933	1.09	0.952	0.966	1.11	1.06	0.758	0.723	0.87	0.825	0.764	0.723
